Data: US9783532B2, “Molecules having certain pesticidal utilities, and intermediates, compositions, and processes related thereto” (Dow AgroSciences LLC, priority 2013, dated 2017)

Columns and labels:
Format in all cases: in vivo
[1] = tested on: Beet Armyworm (Spodoptera exigua) ("BAW"); assay: Bioassay on beet armyworm (BAW), 128-well diet tray assay; details: 168 h, 50 μg/cm^2 on artificial diet, second instar BAW larvae, 25° C., five to seven days, average of eight wells, read-out: BAW % Control (or Mortality) rating
Procedure, shortened: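 Second-instar larvae (one to five per well) were placed on artificial diet surface-treated with 50 μg/cm^2 compound applied in 90:10 acetone-water and dried, eight wells per compound. Held at 25° C., 14:10 light-dark for five to seven days; percent mortality was scored per well and averaged over the eight wells.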

[2] = tested on: Cabbage Looper (Trichoplusia ni) ("CL"); assay: Bioassay on cabbage looper (CL), 128-well diet tray assay; details: 168 h, 50 μg/cm^2 on artificial diet, second instar CL larvae, 25° C., five to seven days, average of eight wells, read-out: CL % Control (or Mortality) rating
Procedure, shortened: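 Second-instar larvae (one to five per well) placed on artificial diet surface-treated with 50 μg/cm^2 compound in 90:10 acetone-water, dried before infestation. Held 25 °C, 14:10 light-dark for five to seven days; percent mortality scored per well and averaged over eight wells.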

[3] = tested on: Green Peach Aphid ("GPA") (Myzus persicae); assay: Bioassay on green peach aphid (GPA), foliar spray on cabbage seedlings; details: Myzus persicae, foliar, 72 h; 200 ppm spray on infested cabbage seedlings, three days, Abbott corrected % control; read-out: GPA % Control (or Mortality) rating
Protocol: Certain molecules disclosed in this document were tested against GPA using procedures described in the following example. In the reporting of the results, the “GPA Rating Table” was used (See Table Section).
Cabbage seedlings grown in 3-inch pots, with 2-3 small (3-5 cm) true leaves, were used as test substrate. The seedlings were infested with 20-50 GPA (wingless adult and nymph stages) one day prior to chemical application. Four pots with individual seedlings were used for each treatment. Test compounds (2 mg) were dissolved in 2 mL of acetone/methanol (1:1) solvent, forming stock solutions of 1000 ppm test compound. The stock solutions were diluted 5× with 0.025% Tween 20 in water to obtain the solution at 200 ppm test compound. A hand-held aspirator-type sprayer was used for spraying a solution to both sides of […] leaves until runoff. Reference plants (solvent check) were sprayed with the diluent only containing 20% by volume of acetone/methanol (1:1) solvent. Treated plants were held in a holding room for three days at approximately 25° C. and ambient relative humidity (RH) prior to grading. Evaluation was conducted by counting the number of live aphids per plant under a microscope. Percent Control was measured by using Abbott's correction formula (W. S. Abbott, “A Method of Computing the Effectiveness of an Insecticide” J. Econ. Entomol. 18 (1925), pp. 265-267) as follows. Corrected % Control=100*(X−Y)/X • where • X=No. of live aphids on solvent check plants and • Y=No. of live aphids on treated plants

[4] = tested on: Yellow Fever Mosquito "YFM" (Aedes aegypti); details: about 1 day-old larvae, 96-well plate, room temperature, 3 days, mortality
Procedure, shortened: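 About 1 day-old Aedes aegypti larvae in liver-powder water added to wells holding compound diluted from 4000 ppm DMSO stock with 90:10 water:acetone, 6 replicate plates. Plates kept covered at room temperature for 3 days. Wells scored for mortality and reported as rating categories.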

| SMILES | mortality at 50 µg/cm2 [1] | mortality at 50 µg/cm2 [2] | mortality at 200 ppm [3] | YFM % Control (or Mortality) rating [4] |
| --- | --- | --- | --- | --- |
| CC(C)c1ccccc1NC(=S)NC(=O)NCCc1ccc(-c2ncn(-c3ccc(OC(F)(F)F)cc3)n2)cc1 [F2, N-[2-isopropylphenyl]-N-[2-(4-{1-[4-(trifluoromethoxy)phenyl]-1H-1,2,4-triazol-3-yl}phenyl)ethyl]dicarbonimidothioic diamide] | 50 to 100% | 50 to 100% | 0 to 80% | A (80-100) |
| Cc1ccc(C(C)C)c(NC(=S)NC(=O)NCCc2ccc(-c3ncn(-c4ccc(OC(F)(F)F)cc4)n3)cc2)c1 [F3, N-[5-methyl-2-isopropylphenyl]-N′-[2-(4-{1-[4-(trifluoromethoxy)-phenyl]-1H-1,2,4-triazol-3-yl}phenyl)ethyl]dicarbonimidothioic diamide] | 50 to 100% | 50 to 100% | 0 to 80% | – |
| Cc1ccc(C(C)C)c(N2C(=O)CS/C2=N\C(=O)NCCc2ccc(-c3ncn(-c4ccc(OC(F)(F)F)cc4)n3)cc2)c1 [F5, (Z)-1-(3-(2-isopropropyl-5-methylphenyl)-4-oxothiazolidin-2-ylidene)-3-(4-(1-(4-(trifluoromethoxy)phenyl)-1H-1,2,4-triazol-3-yl)phenethyl)urea] | 50 to 100% | 50 to 100% | 80 to 100% | A (80-100) |
| COc1ccc(C(C)C)c(N2C(=O)CS/C2=N\C(=O)NCCc2ccc(-c3ncn(-c4ccc(OC(F)(F)F)cc4)n3)cc2)c1 [F6, (Z)-1-(3-(2-isopropyl-5-methoxyphenyl)-4-oxothiazolidin-2-ylidene)-3-(4-(1-(4-(trifluoromethoxy)phenyl)-1H-1,2,4-triazol-3-yl)phenethyl)urea] | 50 to 100% | 50 to 100% | 0 to 80% | A (80-100) |
| CC(Cc1ccc(-c2ncn(-c3ccc(OC(F)(F)F)cc3)n2)cc1)NC(=O)/N=C1\SCC(=O)N1c1ccccc1C(C)C (stereo not shown) [F7, (Z)-1-(3-(2-isopropylphenyl)-4-oxothiazolidin-2-ylidene)-3-(1-(4-(1-(4-(trifluoromethoxy)phenyl)-1H-1,2,4-triazol-3-yl)phenyl)propan-2-yl)urea] | 50 to 100% | 50 to 100% | 0 to 80% | A (80-100) |
| Cc1ccc(C(C)C)c(N2C(=O)CS/C2=N\C(=O)NC(C)Cc2ccc(-c3ncn(-c4ccc(OC(F)(F)F)cc4)n3)cc2)c1 (stereo not shown) [F8, (Z)-1-(3-(2-isopropropyl-5-methylphenyl)-4-oxothiazolidin-2-ylidene)-3-(1-(4-(1-(4-(trifluoromethoxy)phenyl)-1H-1,2,4-triazol-3-yl)phenyl)propan-2-yl)urea] | 50 to 100% | 50 to 100% | 0% | – |
| CC(C)c1ccccc1NC(=S)NC(=O)N/C=C/c1ccc(-c2ncn(-c3ccc(OC(F)(F)F)cc3)n2)cc1 [F11] | 50 to 100% | 50 to 100% | 0% | – |
| CC(C)c1ccccc1N1C(=O)CS/C1=N\C(=O)N/C=C/c1ccc(-c2ncn(-c3ccc(OC(F)(F)F)cc3)n2)cc1 [F12] | 50 to 100% | 50 to 100% | 0% | – |
| C/C(=C\NC(=O)/N=C1\SCC(=O)N1c1ccccc1C(C)C)c1ccc(-c2ncn(-c3ccc(OC(F)(F)F)cc3)n2)cc1 [F13, (Z)-1-(3-(2-isopropylphenyl)-4-oxothiazolidin-2-ylidene)-3-((E)-2-(4-(1-(4-(trifluoromethoxy)phenyl)-1H-1,2,4-triazol-3-yl)phenyl)prop-1-en-1-yl)urea] | 50 to 100% | 50 to 100% | 0% | – |
| CC(C)c1ccccc1NC(=S)NC(=O)NC1CC1c1ccc(-c2ncn(-c3ccc(OC(F)(F)F)cc3)n2)cc1 (stereo not shown) [F22] | 50 to 100% | 50 to 100% | 0% | – |
| CCCc1ccccc1NC(=S)NC(=O)NC1CC1c1ccc(-c2ncn(-c3ccc(OC(F)(F)F)cc3)n2)cc1 (stereo not shown) [F23] | 50 to 100% | 50 to 100% | 0% | – |
| CCc1cccc(C)c1NC(=S)NC(=O)NC1CC1c1ccc(-c2ncn(-c3ccc(OC(F)(F)F)cc3)n2)cc1 (stereo not shown) [F24, N-(2-ethyl-6-methylphenyl)-N′-[2-(4-(1-[4-(trifluoromethoxy)phenyl]-1H-1,2,4-triazol-3-yl)phenyl)cyclopropyl]dicarbonimidothioic diamide] | 50 to 100% | 50 to 100% | 0% | – |
| Cc1cccc(C)c1NC(=S)NC(=O)NC1CC1c1ccc(-c2ncn(-c3ccc(OC(F)(F)F)cc3)n2)cc1 (stereo not shown) [F25] | 50 to 100% | 50 to 100% | 0% | – |
| CCc1ccc(C)cc1NC(=S)NC(=O)NC1CC1c1ccc(-c2ncn(-c3ccc(OC(F)(F)F)cc3)n2)cc1 (stereo not shown) [F27, N-(2-ethyl-5-methylphenyl)-N′-[2-(4-{1-[4-(trifluoromethoxy)phenyl]-1H-1,2,4-triazol-3-yl}phenyl)cyclopropyl]dicarbonimidothioic diamide] | 50 to 100% | 50 to 100% | 0% | – |
| Cc1ccc(C(C)C)c(NC(=S)NC(=O)NC2CC2c2ccc(-c3ncn(-c4ccc(OC(F)(F)F)cc4)n3)cc2)c1 (stereo not shown) [F28, N-[5-methyl-2-(propan-2-yl)phenyl]-N-[2-(4-{1-[4-(trifluoromethoxy)phenyl]-1H-1,2,4-triazol-3-yl}phenyl)cyclopropyl]dicarbonimidothioic diamide] | 50 to 100% | 50 to 100% | 0% | – |
| CCCc1ccccc1N1C(=O)CS/C1=N\C(=O)NC1CC1c1ccc(-c2ncn(-c3ccc(OC(F)(F)F)cc3)n2)cc1 (stereo not shown) [F30, (Z)-1-(4-oxo-3-(2-propylphenyl)thiazolidin-2-ylidene)-3-(2-(4-(1-(4-(trifluoromethoxy)phenyl)-1H-1,2,4-triazol-3-yl)phenyl)cyclopropyl)urea] | 50 to 100% | 50 to 100% | 0% | – |
| CCc1cccc(C)c1N1C(=O)CS/C1=N\C(=O)NC1CC1c1ccc(-c2ncn(-c3ccc(OC(F)(F)F)cc3)n2)cc1 (stereo not shown) [F31, (Z)-1-(3-(2-ethyl-6-methylphenyl)-4-oxothiazolidin-2-ylidene)-3-(2-(4-(1-(4-(trifluoromethoxy)phenyl)-1H-1,2,4-triazol-3-yl)phenyl)cyclopropyl)urea] | 50 to 100% | 50 to 100% | 0% | – |
| Cc1cccc(C)c1N1C(=O)CS/C1=N\C(=O)NC1CC1c1ccc(-c2ncn(-c3ccc(OC(F)(F)F)cc3)n2)cc1 (stereo not shown) [F32, (Z)-1-(3-(2,6-dimethylphenyl)-4-oxothiazolidin-2-ylidene)-3-(2-(4-(1-(4-(trifluoromethoxy)phenyl)-1H-1,2,4-triazol-3-yl)phenyl)cyclopropyl)urea] | 50 to 100% | 50 to 100% | 0% | – |
| CCc1ccc(C)cc1N1C(=O)CS/C1=N\C(=O)NC1CC1c1ccc(-c2ncn(-c3ccc(OC(F)(F)F)cc3)n2)cc1 (stereo not shown) [F33, (Z)-1-(3-(2-ethyl-5-methylphenyl)-4-oxothiazolidin-2-ylidene)-3-(2-(4-(1-(4-(trifluoromethoxy)phenyl)-1H-1,2,4-triazol-3-yl)phenyl)cyclopropyl)urea] | 50 to 100% | 50 to 100% | 0% | – |
| Cc1ccc(C(C)C)c(N2CCS/C2=N\C(=O)NC2CC2c2ccc(-c3ncn(-c4ccc(OC(F)(F)F)cc4)n3)cc2)c1 (stereo not shown) [F34, (Z)-1-(3-(2-isopropyl-5-methylphenyl)thiazolidin-2-ylidene)-3-(2-(4-(1-(4-(trifluoromethoxy)-phenyl)-1H-1,2,4-triazol-3-yl)phenyl)cyclopropyl)urea] | 50 to 100% | 50 to 100% | 0% | – |
